Read-outs that look alike come from different tables or passages of the source.
Legend:
[1] = system: HBsAg; conditions: cited from earlier work
[2] = system: HBV DNA; conditions: cited from earlier work
[3] = read-out: CC50 cytotoxicity; cited from earlier work
[4] = Cryopreserved PHH assay, cell viability by CellTiter-Glo; assay type: cell-based; conditions: human, cryopreserved primary human hepatocytes (PHH), day 10, CellTiter-Glo
Protocol: (§1) The inhibitory effect of the compounds on HBV was evaluated by real-time quantitative qPCR assay (real time-qPCR) to detect the HBV DNA content in human primary hepatocytes (PHH) culture supernatant, and ELISA to detect the hepatitis B surface antigen and e antigen content, the EC50 value of the compounds was used as an indicator; meanwhile, the cell viability was detected by CellTiter-Glo to evaluate the toxicity of the compounds to cells.
(§2) 3.1. On day 0, PHH (1.32×10^5 cells/well) was seeded into a 48-well plate and incubated overnight at 37° C., 5% CO2.
(§3) 3.3 On the second day, the test compound was diluted to 7 concentrations with 5-fold serial dilution. Reference compound Peg-IFN-α 2a, 7 concentrations with 3-fold serial dilution. Compounds with different concentrations were added to the culture wells, and the wells were double-duplicated wells. The final concentration of DMSO in the culture medium was 2%.
(§4) 3.4 On the 4th, 6th, and 8th day, the culture medium was replaced by a fresh culture medium containing the compound.
(§5) 3.5 After collecting the culture supernatant from the culture well on the 10th day, the cell viability was tested with CellTiter-Glo. A portion of the culture supernatant was collected for ELISA determination to detect the content of hepatitis B virus surface antigen and e antigen; a portion of the sample was collected for extract DNA using a high-throughput DNA purification kit, referring to the product instructions for the specific steps.
Calculation of the percentage of cell viability: % viability=the luminescence value of the sample/the luminescence value of the DMSO control×100.

[5] = system: HBV DNA; assay: Cryopreserved PHH assay, real-time qPCR of HBV DNA in culture supernatant; assay type: cell-based, type D HBV in human primary hepatocytes (PHH); conditions: Hepatitis B virus, 240 h; PHH infected with type D HBV, supernatant day 10, qPCR
Protocol: as §1, §2
(§6) 3.2. On the first day, PHH was infected with type D HBV (concentrated from HepDE19 cell culture supernatant).
as §3, §4, §5
3.6 Quantitative PCR to detect the content of HBV DNA
The qPCR reaction mixture, sample and standard were added to the 384 well reaction plate. PCR reactions: 95° C., 10 min; 95° C., 15 sec, 60° C., 1 min, 40 cycles.
(§7) Calculation of the inhibition percentage of HBV DNA, HBV surface antigen and e antigen. % Inh.=(1−value of the sample/value of DMSO control)×100.

[6] = system: HBV e antigen (HBeAg); assay: Cryopreserved PHH assay, ELISA of hepatitis B e antigen in culture supernatant; assay type: cell-based, type D HBV in human primary hepatocytes (PHH); conditions: Hepatitis B virus, 240 h, read-out: HBeAg EC50
Protocol: as §1, §2, §6, §3, §4, §5
(§8) 3.7 ELISA determination of hepatitis B virus surface antigen and e antigen
(§9) The specific steps can be referred to the product manual, the steps are briefly described as follows: 50 μL of sample and standard was added to the reaction plate respectively, 50 μL of enzyme conjugate was added to each well, the mixture was shaken and mixed well, then kept in a warm bath at 37° C. for 60 minutes, the plate was washed with washing solution for 5 times, 50 μL of the luminescent substrate was added to each well, the mixture was mixed well, and the reaction was carried out in the dark at room temperature for 10 minutes, and finally the chemiluminescence intensity was detected with the instrument.
as §7

[7] = system: HBV surface antigen (HBsAg); assay: Cryopreserved PHH assay, ELISA of hepatitis B surface antigen in culture supernatant; assay type: cell-based, type D HBV in human primary hepatocytes (PHH); conditions: Hepatitis B virus, 240 h, read-out: HBsAg EC50
Protocol: as §1, §2, §6, §3, §4, §5, §8, §9, §7

What does the source list for `Clc1cc2nc(N3CCN(c4ccccn4)CC3)[nH]c2cc1Cl` [BM601]?
EC50 [1]: 1.5 µM; EC50 [2]: 0.6 µM; CC50 [3]: 24.5 µM

What does the source list for `CC1(C)N=C(c2cc(-c3ccc(C(=O)O)cc3)c[nH]2)Nc2c(Cl)cccc21` [Compound I-51, 4-(5-(8-chloro-4,4-dimethyl-1,4-dihydroquinazolin-2-yl)-1H-pyrrol-3-yl)benzoic acid]?
CC50 at 8 days [4]: > 50 µM; EC50 [5]: 0.0097 µM; EC50 [6]: 0.01 µM; EC50 [7]: > 50 µM

Which results are given for `CC1(C)N=C(c2nc(-c3ccc(C(=O)O)cc3)co2)Nc2c(Cl)cccc21` [Compound I-53, 4-(2-(8-chloro-4,4-dimethyl-1,4-dihydroquinazolin-2-yl)oxazol-4-yl)benzoic acid]?
CC50 at 8 days [4]: > 50 µM; EC50 [5]: 0.0084 µM; EC50 [6]: 0.0056 µM; EC50 [7]: 0.115 µM

Which results are given for `CC1(C)N=C(c2nc(-c3ccc(C(=O)O)cc3)c[nH]2)Nc2ccccc21` [Compound I-54, 4-(2-(4,4-dimethyl-1,4-dihydroquinazolin-2-yl)-1H-imidazol-4-yl)benzoic acid]?
CC50 at 8 days [4]: > 50 µM; EC50 [5]: 0.025 µM; EC50 [6]: 0.041 µM; EC50 [7]: 0.326 µM

Which CC50 at 8 days [4] does the source give for `CC1(C)N=C(c2nc(-c3ccc(C(=O)O)cc3)cs2)Nc2c(OC(F)(F)F)cccc21` [Compound I-65, 4-(2-(4,4-dimethyl-8-trifluoromethoxyl-1,4-dihydroquinazolin-2-yl)thiazol-4-yl)benzoic acid] here?
Its CC50 at 8 days is over 50 µM.

What about the EC50 [5] of the same compound?
The EC50 was 0.003 µM.

What about the EC50 [6] of the same compound?
The EC50 was 0.0033 µM.

What about the EC50 [7] of the same compound?
The EC50 was 0.0395 µM.

For `CC1(C)N=C(c2nc(-c3ccc(C(=O)NS(C)(=O)=O)cc3)cs2)Nc2ccccc21` [Compound I-66], which CC50 at 8 days [4] is on record?
The CC50 at 8 days was over 50 µM.

What about the EC50 [5] of the same compound?
The EC50 was 0.0304 µM.

What about the EC50 [6] of the same compound?
The EC50 was 0.0317 µM.

And the EC50 [7]?
Its EC50 is 0.369 µM.

With `CC1(C)OC(c2nc(-c3ccc(C(=O)O)cc3)cs2)=Nc2ccccc21` [Compound I-67, 4-(2-(4,4-dimethyl-4H-benzo[d] [1,3]oxazin-2-yl)thiazol-4-yl)benzoic acid] as the compound, how does the CC50 at 8 days [4] read?
Its CC50 at 8 days is over 50 µM.

What about the EC50 [5] of the same compound?
Its EC50 is 0.0179 µM.

And the EC50 [6]?
Its EC50 is 0.0042 µM.

What about the EC50 [7] of the same compound?
The EC50 was 0.147 µM.

What does the source list for `CC1(C)N=C(c2nc(-c3ccc(C(=O)O)cc3)cs2)Oc2ccccc21` [Compound I-68, 4-(2-(4,4-dimethyl-4H-benzo[e] [1,3]oxazin-2-yl)thiazol-4-yl)benzoic acid]?
CC50 at 8 days [4]: > 50 µM; EC50 [5]: 0.0811 µM; EC50 [6]: 0.017 µM; EC50 [7]: 0.582 µM

Which CC50 at 8 days [4] does the source give for `CCC1(CC)N=C(c2nc(-c3ccc(C(=O)O)cc3)cs2)Nc2ccccc21` [Compound I-69, 4-(2-(4,4-diethyl-1,4-dihydroquinazolin-2-yl)thiazol-4-yl)benzoic acid] here?
Its CC50 at 8 days is over 50 µM.

And the EC50 [5]?
Its EC50 is 0.0171 µM.

What about the EC50 [6] of the same compound?
The EC50 was 0.0113 µM.

What about the EC50 [7] of the same compound?
The EC50 was 0.0563 µM.

With `CC1(C)N=C(c2nc(-c3ccc(C(=O)O)cc3)cs2)Nc2c(F)cc(F)cc21` [Compound I-70, 4-(2-(6,8-difluoro-4,4-dimethyl-1,4-dihydroquinazolin-2-yl)thiazol-4-yl)benzoic acid] as the compound, how does the CC50 at 8 days [4] read?
Its CC50 at 8 days is over 50 µM.

And the EC50 [5]?
The EC50 was 0.00713 µM.

And the EC50 [6]?
The EC50 was 0.0052 µM.

What about the EC50 [7] of the same compound?
The EC50 was 0.0407 µM.

Which results are given for `CC1(C)N=C(c2nc(-c3ccc(C(N)=O)cc3)cs2)Nc2ccccc21` [Compound I-71, 4-(2-(4,4-dimethyl-1,4-dihydroquinazolin-2-yl)thiazol-4-yl)benzamide]?
CC50 at 8 days [4]: > 50 µM; EC50 [5]: 0.0316 µM; EC50 [6]: 0.0147 µM; EC50 [7]: 0.0924 µM

With `CC1(C)N=C(c2nc(-c3ccc(-c4nnn[nH]4)cc3)cs2)Nc2ccccc21` [Compound I-72] as the compound, how does the CC50 at 8 days [4] read?
Its CC50 at 8 days is over 50 µM.

What about the EC50 [5] of the same compound?
Its EC50 is 8.09 µM.

What about the EC50 [6] of the same compound?
Its EC50 is 8.05 µM.

What about the EC50 [7] of the same compound?
Its EC50 is 17.5 µM.

Which results are given for `CCOC(=O)c1ccc(-c2csc(C3=NC(C)(C)c4ccccc4N3)n2)cc1` [Compound I-73]?
CC50 at 8 days [4]: > 50 µM; EC50 [5]: 0.0134 µM; EC50 [6]: 0.012 µM; EC50 [7]: 0.115 µM

Source: US11661420B2 (NANJING HEPO PHARMACEUTICAL CO., LTD, priority 2019, dated 2023)
